# According to patent US6365574B2, “Ethanolate of azithromycin, process for manufacture, and pharmaceutical compositions thereof” (Teva Pharmaceutical Industries Ltd., priority 1998, dated 2002):
# Entries after “also recorded” stand apart in the source; their conditions may differ. Read-outs that look alike come from different tables or passages of the source.
# Assays:
# [1] = cited from earlier work
# [2] = Hygroscopicity profile: controlled humidity chambers for two weeks, then Karl Fisher analysis of water content; format: physicochemical; details: compared with azithromycin monohydrate over a range of relative humidity (FIG. 1); monohydrate data from EP 298,650
# Source text: Hygroscopicity profiles were obtained by maintaining samples in controlled humidity chambers for a period of two weeks, followed by Karl Fisher analysis of water content.
Substance,"hygroscopicity ([1]; according to EP 298,650)",other results
9-deoxo-9a-aza-9a-methyl-9a-homoerythromycin A,,"hygroscopicity ([1]; according to CN 1,093,370): less hygroscopic than the dehydrate described in EP 298,650"
9-deoxo-9a-aza-9a-methyl-9a-homoerythromycin A [dehydrate form of azithromycin],less hygroscopic than the previously known monohydrate,
9-deoxo-9a-aza-9a-methyl-9a-homoerythromycin A [ethanolate of azithromycin],,hygroscopicity [2]: less hygroscopic than azithromycin monohydrate; also recorded: less hygroscopic than the prior art monohydrate
9-deoxo-9a-aza-9a-methyl-9a-homoerythromycin A [monohydrate],hygroscopic,
